This is an account of results in patent US20040253265A1, “Biological compositions and methods for treatment of bladder cancer” (priority 2003, published 2004).

Series [1] deals with BBN-induced T739 bladder cancer cells (murine bladder transitional cell line BTT739). Description: Tumor growth in T739 mice with transplanted bladder cancer cells (Example 6). The format is in vivo, mouse. Particulars: tumor-bearing T739 mice; 30 consecutive days of treatment (yeast 0.3 ml oral once per day; TSPA 1.5 mg/kg/day i.v.); sacrificed on 31st day. The method, then: The mice injected with tumor cells were kept for 5 days and then were divided into 4 experimental groups of ten mice per group and one control group. The four experimental groups were triplicated (i.e., using a total of 120 mice in the experimental groups).
The mice in group CK2 also started receiving saline on the same day as the other four groups. […] The weight of the mice and the weight of the tumor were determined by standard techniques.

The test system is the same in series [2]. Description: Survival of T739 mice with transplanted bladder cancer cells (Example 7). The series is classed as in vivo. To be noted: for Number of live animals remaining in the groups after 30 days of treatment: 30 mice per group. The method, then: The following example illustrates the benefit of a biological composition of the invention in a mouse model of human bladder cancer based on a murine bladder transitional cell line BTT739. The survival time of mice after tumor injection and treatment was studied.
(§1) The biological composition comprising 10^8 cells per ml of activated and conditioned yeast cells of the strain Saccharomyces cerevisiae Hansen strain AS2.4 was prepared by the methods described in Sections 5.1 and subsections therein.
The tumors were prepared in a similar manner as described in Sections 6.1.
The animals were prepared in a similar manner as described in Section 6.2.
(§2) The mice injected with tumor cells were kept for 5 days and then were divided into 4 experimental groups of ten mice per group and one control group. The four experimental groups were triplicated (i.e., using a total of 120 mice in the experimental groups). In group 2AY, the mice received 0.3 ml of the biological composition once per day. In group 2NY, the mice received 0.3 ml of the untreated yeast cells once per day. In group 2TSPA, the mice were injected intravenously with 1.5 mg of thiotepa (TSPA) per kg body weight per day. In group 2CK1, the mice received 0.3 ml of physiological saline once per day.
The mice received a biological composition, untreated yeast cells, TSPA or saline on the same day as the tumor cells were transplanted. The mice in group CK2 also started receiving saline on the same day as the other four groups. The biological composition, untreated yeast cells or saline were administered orally by a feeding tube and the TSPA by intravenous injection for 30 consecutive days. The mice were observed over 6 months from the day of tumor inoculation and survival was recorded. The weight of the mice and the weight of the tumor were determined by standard techniques.
Each of the 30 mice in each group received 30 consecutive days of either untreated yeast cells, TSPA, saline or a biological composition of the invention.

The test system of series [3] is bladder cell line BBN. Description: Tumor growth in Wistar rats with transplanted bladder cancer cells (Example 8). To be noted: tumor-bearing Wistar rats; 30 consecutive days of treatment (yeast 0.3 ml oral once per day; VCR 3 mg/kg/day i.v.); sacrificed on 31st day. The series is classed as in vivo, rat. The method, then: The four experimental groups were triplicated (i.e., using a total of 120 rats in the experimental groups).
The weight of the rats and the weight of the tumor were determined by standard techniques.

Series [4] has as its system bladder cell line BBN. Kind of series: Survival of Wistar rats with transplanted bladder cancer cells (Example 9). The series is classed as in vivo. To be noted: for Number of live animals remaining in the groups after 30 days of treatment: 30 rats per group. How it is done:
The following example illustrates the benefit of a biological composition of the invention in a Wistar rat model of human bladder cancer. The survival time of the rats after tumor injection and treatment was studied.
as §1
The animals were prepared in a similar manner as described in Section 8.1.
as §2, with “rats” for “mice”, “2VCR,” for “2TSPA,”, “3” for “1.5”, “[…] (VCR)” for “thiotepa (TSPA)”
The rats received a biological composition, untreated yeast cells, VCR or saline on the same day as the tumor cells were transplanted. The rats in group 2CK2 also started receiving saline on the same day as the other four groups. The biological composition, untreated yeast cells and saline were administered orally by a feeding tube and the VCR by intravenous injection for 30 consecutive days. The rats were observed over 6 months from the day of tumor inoculation and survival was recorded. The weight of the rats and the weight of the tumor were determined by standard techniques.
Each of the 30 rats in each group received 30 consecutive days of either untreated yeast cells, VCR, saline or a biological composition of the invention.

Where [5] appears, read: 0 month after cessation of treatment.
Where [6] appears, read: 1 month after cessation of treatment.
[7] abbreviates: 2 months after cessation of treatment.
Where [8] appears, read: 3 months after cessation of treatment.
Setting [9] is: 4 months after cessation of treatment.
[10] abbreviates: 5 months after cessation of treatment.
Where [11] appears, read: 6 months after cessation of treatment.
[12] abbreviates: mice that survived the 6 months observation after 30 days of treatment.
[13] abbreviates: rats that survived the 6 months observation after 30 days of treatment.

On to `S=P(N1CC1)(N1CC1)N1CC1` [TSPA, thiotepa], for which the “mean weight of mice and standard deviation” value in series [1] is recorded as 19.5 ± 2.2 g; in series [2] (setting [12]) it was “all animals dead”. Further, the “mean weight of tumor nodules and standard deviation” value in series [1] was 3.3 ± 2.1 mg; in series [2] (setting [12]), “all animals dead”. The “Number of live animals remaining in the groups after 30 days of treatment” value (from here on “Number of live animals remaining”) worked out at 30 in series [2] (setting [5]); 24 in series [2] (setting [6]); 11 in series [2] (setting [7]); 7 in series [2] (setting [8]); 2 in series [2] (setting [9]); 0 in series [2] (setting [10]). Besides, the “Number of live animals remaining” value in series [2] (setting [11]) was found to be 0. In addition, the “survival outcome during the experiment” value in series [2] (30 days of treatment, observed over 6 months) was “all died during the experiment”.

In the case of `CC[C@]1(O)C[C@@H]2CN(CCc3c([nH]c4ccccc34)[C@@](C(=O)OC)(c3cc4c(cc3OC)N(C)[C@H]3[C@@](O)(C(=O)OC)[C@H](OC(C)=O)[C@]5(CC)C=CCN6CC[C@]43[C@@H]65)C2)C1` [VCR, vinblastine], the “mean weight of rats and standard deviation” value is 191.3 ± 12.4 g in series [3] and “all animals dead” in series [4] (setting [13]). In addition, the “mean weight of tumor nodules and standard deviation” value is listed as 2.65 ± 1.7 g in series [3] and “all animals dead” in series [4] (setting [13]). The “Number of live animals remaining” value in series [4] (setting [5]) is 30; in series [4] (setting [6]) it was 30; in series [4] (setting [7]), 30; in series [4] (setting [8]), 30; in series [4] (setting [9]), 30; in series [4] (setting [10]) it was 28. Further, in series [4] (setting [11]), the “Number of live animals remaining” value was 26.
